Data taken from PMC6151984, “Novel Sulfamide-Containing Compounds as Selective Carbonic Anhydrase I Inhibitors” (Molecules : A Journal of Synthetic Chemistry and Natural …, 2017).

Legend:
Assay in all cases: stopped-flow CO2 hydration assay
Assay type in all cases: biochemical
[1] = target: T1, hCA IV (Homo sapiens, UniProt P22748)
T1 construct: gene CA4; recombinant, obtained in-house
Source text: stopped-flow CO2 hydration assay on hCA IV

[2] = target: T2, hCA I (Homo sapiens, UniProt P00915)
T2 construct: gene CA1; recombinant, obtained in-house; cytosolic
T2 sequence (P00915 2-261): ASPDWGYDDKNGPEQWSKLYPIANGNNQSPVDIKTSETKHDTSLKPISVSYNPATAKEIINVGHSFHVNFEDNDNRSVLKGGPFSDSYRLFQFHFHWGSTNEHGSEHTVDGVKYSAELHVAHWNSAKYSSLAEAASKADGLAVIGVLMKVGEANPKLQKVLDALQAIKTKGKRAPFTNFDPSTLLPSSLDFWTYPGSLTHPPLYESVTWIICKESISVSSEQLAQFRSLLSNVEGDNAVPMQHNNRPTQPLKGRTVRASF
Source text: stopped-flow CO2 hydration assay on hCA I

[3] = target: T3, hCA II (Homo sapiens, UniProt P00918)
T3 construct: gene CA2; recombinant, obtained in-house; cytosolic
Source text: stopped-flow CO2 hydration assay on hCA II

T1 sequence (P22748 19-284): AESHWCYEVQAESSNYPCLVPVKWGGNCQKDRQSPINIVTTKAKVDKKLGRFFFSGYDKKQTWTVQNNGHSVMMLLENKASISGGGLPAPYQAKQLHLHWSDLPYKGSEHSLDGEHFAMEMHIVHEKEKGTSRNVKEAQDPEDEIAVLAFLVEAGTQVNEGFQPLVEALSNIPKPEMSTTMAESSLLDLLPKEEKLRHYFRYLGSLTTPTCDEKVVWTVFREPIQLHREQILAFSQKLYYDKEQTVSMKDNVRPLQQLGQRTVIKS

Row | Ki [1] [nM] | Ki [2] [nM] | Ki [3] [nM] | Compound
1 | 467 | 326 | 786 | NS(=O)(=O)Nc1ccc(S(=O)(=O)N2CCCC(C(=O)N3CCN(C(c4ccc(F)cc4)c4ccc(F)cc4)CC3)C2)cc1 (stereo not drawn) [6l, (1-((4-Sulfamoylaminophenyl)sulfonyl)piperidin-3-yl)(4-(bis(4-fluorophenyl)methyl)piperazin-1-yl)methanone]
2 | 1500 | 2750 | 6460 | NS(=O)(=O)Nc1ccccc1S(=O)(=O)N1CCCC(C(=O)N2CCN(C(c3ccc(F)cc3)c3ccc(F)cc3)CC2)C1 (stereo not drawn) [6j, (1-((2-Sulfamoylaminophenyl)sulfonyl)piperidin-3-yl)(4-(bis(4-fluorophenyl)methyl)piperazin-1-yl)methanone]
3 | 423 | 94 | 165 | NS(=O)(=O)Nc1cccc(S(=O)(=O)NCCC(=O)N2CCN(C(c3ccc(F)cc3)c3ccc(F)cc3)CC2)c1 [6e, N-(3-(4-(bis(4-Fluorophenyl)methyl)piperazin-1-yl)-3-oxopropyl)-3(sulfamoylamino)benzenesulfonamide]
4 | 117 | 660 | 189 | NS(=O)(=O)Nc1ccccc1S(=O)(=O)NCCC(=O)N1CCN(C(c2ccc(F)cc2)c2ccc(F)cc2)CC1 [6d, N-(3-(4-(bis(4-Fluorophenyl)methyl)piperazin-1-yl)-3-oxopropyl)-2(sulfamoylamino)benzenesulfonamide]
5 | 1620 | 71.4 | 911 | NS(=O)(=O)Nc1cccc(S(=O)(=O)N2CCCC(C(=O)N3CCN(C(c4ccccc4)c4ccccc4)CC3)C2)c1 (stereo not drawn) [6h, 4(1-((3-Sulfamoylaminophenyl)sulfonyl)piperidin-3-yl)(4-benzhydrylpiperazin-1-yl)methanone]
6 | 1380 | 45.8 | 753 | NS(=O)(=O)Nc1cccc(S(=O)(=O)N2CCCC(C(=O)N3CCN(C(c4ccc(F)cc4)c4ccc(F)cc4)CC3)C2)c1 (stereo not drawn) [6k, (1-((3-Sulfamoylaminophenyl)sulfonyl)piperidin-3-yl)(4-(bis(4-fluorophenyl)methyl)piperazin-1-yl)methanone]
7 | 124 | 75.4 | 439 | NS(=O)(=O)Nc1ccc(S(=O)(=O)NCCC(=O)N2CCN(C(c3ccccc3)c3ccccc3)CC2)cc1 [6c, N-(3-(4-Benzhydrylpiperazin-1-yl)-3-oxopropyl)-4-(sulfamoylamino)benzenesulfonamide]
8 | 151 | 286 | 473 | NS(=O)(=O)Nc1ccccc1S(=O)(=O)NCCC(=O)N1CCN(C(c2ccccc2)c2ccccc2)CC1 [6a, N-(3-(4-Benzhydrylpiperazin-1-yl)-3-oxopropyl)-2-(sulfamoylamino)benzenesulfonamide]
9 | 314 | 605 | 89.8 | NS(=O)(=O)Nc1ccccc1S(=O)(=O)N1CCCC(C(=O)N2CCN(C(c3ccccc3)c3ccccc3)CC2)C1 (stereo not drawn) [6g, (1-((2-Sulfamoylaminophenyl)sulfonyl)piperidin-3-yl)(4-benzhydrylpiperazin-1-yl)methanone]
10 | 202 | 63.2 | 406 | NS(=O)(=O)Nc1ccc(S(=O)(=O)NCCC(=O)N2CCN(C(c3ccc(F)cc3)c3ccc(F)cc3)CC2)cc1 [6f, N-(3-(4-(bis(4-Fluorophenyl)methyl)piperazin-1-yl)-3-oxopropyl)-4-(sulfamoylamino)benzenesulfonamide]
11 | 2360 | 83.1 | 419 | NS(=O)(=O)Nc1cccc(S(=O)(=O)NCCC(=O)N2CCN(C(c3ccccc3)c3ccccc3)CC2)c1 [6b, N-(3-(4-Benzhydrylpiperazin-1-yl)-3-oxopropyl)-3-(sulfamoylamino)benzenesulfonamide]
12 | 364 | 153 | 455 | NS(=O)(=O)Nc1ccc(S(=O)(=O)N2CCCC(C(=O)N3CCN(C(c4ccccc4)c4ccccc4)CC3)C2)cc1 (stereo not drawn) [6i, (1-((4-Sulfamoylaminophenyl)sulfonyl)piperidin-3-yl)(4-benzhydrylpiperazin-1-yl)methanone]
